Tested on: IgE
Test: IgE content in the serum (ELISA)
Type: in vivo
Conditions: positive control group, 30 mg/kg
Experimental: In order to measure IgE content in the serum, enzyme-linked immunosorbent assay (ELISA) (an antigen-antibody amount measurement method) kit was used. 100 μl of each of the standard solution and the serum entered each well, was reacted at 4° C. for 10 hours using a rotary agitator and then washed 4 times with a washing solution.
After completely removing the washing solution, 100 μl of a detection antibody entered each well, followed by rotational-agitation at room temperature for 1 hour and then washing the same 4 times with the washing solution. After washing, 100 μl of HRP-Streptavidin (enzyme activity and adsorption protein) solution entered each well, followed by rotational-agitation at room temperature for 45 minutes and then washing the same with 1× washing solution. Further, 100 μl of TMB One-step detection reagent entered each well, followed by rotational-agitation in a dark room for 30 minutes, and then, treatment with 50 μl of a reaction stopping reagent. Then, the absorbance was measured at […], compared to IgE standard curve to convert a content (pg/ml).

CC(C)(O)c1ccccc1CC[C@@H](SCC1(CC(=O)O)CC1)c1cccc(/C=C/c2ccc3ccc(Cl)cc3n2)c1 [monteluksat, montelukast]
IgE content in the serum: 347 pg/mL
